Measured values: a melting point compilation (Tetko et al.)

Structure (SMILES) | melting point [°C]
CC(=O)N(C)c1ccc(N)cc1 | 70 to 71
CN(C)S(=O)(=O)c1cccc(C(=O)c2ccccc2)c1 | 82 to 84
O=C(Cl)c1csc(-c2ccc(C(F)(F)F)cc2)n1 | 96 to 98
Nc1n[nH]c(N)c1Cc1ccccc1Cl | 120 to 121
O=C(O)c1cc(F)ccc1[N+](=O)[O-] | 135
CCOC(=O)C1(c2ccccc2)CCN(C)CC1 | 270
Cc1ccc([N+](=O)[O-])cc1C(=O)O | 179
CCOC(=O)c1cc(-c2cccs2)n(C)n1 | 38 to 41
O=C(O)c1n[nH]c2ccccc12 | 259 to 262
Cc1oc(-c2ccccc2)cc1C(=O)Cl | 85 to 88
Cc1ccc(C(N)=O)cc1C | 107 to 109
Cc1nn(-c2ccccc2)nc1C(=O)NO | 160
NNC(N)=O | 96
O=C(c1ccco1)c1noc(-c2ccc(Cl)cc2)c1S(=O)(=O)c1ccccc1 | 140
Nc1ccc(C(=O)c2ccccc2)cc1[N+](=O)[O-] | 140 to 143
CC(CC1CC(=O)c2c3c(c4ccccc4c2O1)O[C@@H]1CC(=O)O[C@H]31)O[Si](C)(C)C(C)(C)C (stereo partly drawn) | 131 to 133
N#Cc1cccc(Cn2c(=O)oc3ccccc32)c1 | 170 to 172
ClCc1cc2c(cc1Cl)OCO2 | 64
O=[N+]([O-])c1cccc(C2OCCO2)c1 | 54
CNCc1ccc(-c2ncccn2)cc1 | 49.5 to 54.9
CC(C)(C)C(=O)Cl | -56
Nc1c(C(=O)O)sc2nccnc12 | 250
COc1ccc(COC(=O)NN)cc1 | 76
O=C(COc1ccc(Cl)cc1)Nc1nc2ccc(Br)cc2s1 | 236
COc1ccc(C(=O)Cc2ccccc2)cc1OC | 87 to 88

Structure (SMILES) | melting point [°C]
CCOC(=O)C(CCC(=O)O)(CCC(=O)O)C(C)=O | 105 to 108
O=S(=O)(c1ccccc1)n1cc(Br)c2ccccc21 | 120 to 121
CC(=O)CC(C)(C)O | -42.8
Cc1ccc2c(c1)C(=O)OC2=O | 88 to 92
CC(=O)OC1CC[C@]2(C)[C@H]3CC[C@]4(C)C(=O)CC[C@H]4[C@@H]3C(=O)C[C@@]2(C)C1 (stereo partly drawn) | 153 to 157
CCCCCCCCCCCCc1ccccc1 | 3
c1ccc(OCc2ccc(CCN3CCOCC3)cc2)cc1 | 86
Cc1cc(CO)ccc1[N+](=O)[O-] | 56 to 60
N#Cc1cccc(Cl)n1 | 87
c1ccc(-c2nnc3n2CN(c2ccccn2)CS3)cc1 | 223 to 224
Nc1ncnc2c1ncn2C1OC(COP(=O)(O)OP(=O)(O)OP(=O)(O)O)C(O)C1O (stereo not drawn) | 176
COc1cc(OC)nc(NC(=O)NS(=O)(=O)c2c(-c3nnn(C)n3)cnn2C)n1 | 170
O=[N+]([O-])c1ccnc(Cl)c1 | 52
O=[N+]([O-])c1ncccc1O | 71
O=C1OC(CO)C(O)C(O)C1O (stereo not drawn) | 151 to 155
CCCCCCCCCC1CCCC1 | -29
O=C1c2ccc(C(Br)Br)c([N+](=O)[O-])c2C(=O)c2c(Cl)c(Cl)c(Cl)c(Cl)c21 | 246 to 248
Clc1nc(Cl)nc(Oc2cc(Oc3nc(Cl)nc(Cl)n3)cc(Oc3nc(Cl)nc(Cl)n3)c2)n1 | 240
CC(=O)OCCN(CCC#N)c1ccc(N=Nc2nc3ccc([N+](=O)[O-])cc3s2)cc1 | 167
Fc1ccc(P(c2ccc(F)cc2)c2ccc(F)cc2)cc1 | 80
Nc1c(F)cc(Cl)cc1Br | 41 to 43
O=C(O)c1c(F)cccc1C(F)(F)F | 88 to 89
CSc1cc(-c2ccc(Cl)cc2)c2c(=O)n(-c3ccccc3)n(C)c2c1 | 167
CC(C)N(C(=O)SCC(Cl)=C(Cl)Cl)C(C)C | 29
O=C1C=C(c2ccccc2)CC1 | -23

Structure (SMILES) | melting point [°C]
CC1=NN(c2ccc(C)cc2)C(=O)C1 | 138
CN1CCOc2cc(C(=O)Cl)ccc21 | 96 to 100
Nc1cnn(-c2ccccc2)c(=O)c1Cl | 206
O=C(c1ccccc1)c1cccc2ccccc12 | 76
CCC#CCCCCCCCCCCCCCC | 2
Cc1sc(-c2ccccn2)nc1-c1ccccc1 | 86
CCCCCOc1ccc(O)cc1 | 46 to 49
Cn1c(=O)c(C2=NNC(=O)C2=CNc2ccccn2)c(O)c2ccccc21 | 235
O=[N+]([O-])c1cccc(F)c1 | 41
CCO[Si](Cl)(OCC)OCC | -51
CC(=O)OC1OC(=O)c2ccccc21 (stereo not drawn) | 71
CCCCC(C#N)(Cn1cncn1)c1ccc(Cl)cc1 (stereo not drawn) | 70.9
CCOC(=O)CC(/C=C1\C(=O)C2(C)CCC1C2(C)C)(/C=C1\C(=O)C2(C)CCC1C2(C)C)C(=O)OCC (stereo not drawn) | 105
O=C(O)c1cccnc1Oc1ccccc1 | 181
CC(/C=C/c1ccccc1)=C\C(C)=N\Nc1ccc([N+](=O)[O-])cc1[N+](=O)[O-] | 232 to 234
CNC1=CC(=O)C2(C)CCC1C2(C)C (stereo not drawn) | 195
Cc1ccc(Nc2ccc(Nc3ccc(C)cc3)c3c2C(=O)c2ccccc2C3=O)cc1 | 218
O=C(CS(=O)C(c1ccccc1)c1ccccc1)NO (stereo not drawn) | 159
O=S(=O)(O)CCCN1CCOCC1 | 284
CCCOC(=O)C1=C(C)NC(C)=C(C(=O)OCCC)C1c1cccc(OC)c1O | 166 to 168
COC(=O)c1ccc(N(C)C)cc1 | 100
CC1(C)CC(CN2C(=O)C=CC2=O)C(C)(C)N1O (stereo not drawn) | 148 to 150
COc1ccc(C=C(S)C(=O)O)cc1 | 140
C=C(C)CCC=C(C)C | -70
OCc1ccc(-n2cccc2)cc1 | 102 to 105

Structure (SMILES) | melting point [°C]
CCc1oc2ccccc2c1C(=O)c1ccc(O)cc1 | 124
O=[N+]([O-])c1ccc(Cl)c(CO)c1 | 77 to 78
CC1(C(=O)O)CCC2(C)CCC3(C)C(=CC(=O)C4C5(C)CCC(O)C(C)(C)C5CCC43C)C2C1 (stereo not drawn) | 296
COc1ccc(-c2ccc(S(=O)(=O)NC(Cc3ccccc3)C(=O)O)cc2)cc1 (stereo not drawn) | 179
COc1ccc(C2Cc3ccccc3C(=O)O2)cc1 (stereo not drawn) | 108
c1ccc(CON=C(c2cc3ccccc3o2)c2cc3ccccc3o2)cc1 | 127 to 128
OCCSCCSCCO | 64 to 68
CCCCC(CC)CC | -115
NNC(=O)c1ccc(N)cc1O | 195
O=C1Nc2ccccc2C=NC2CCCCC2N=Cc2ccccc2NC(=O)O1 (stereo not drawn) | 253 to 255
Cc1cc(C(c2ccc(C)o2)c2ccc(C)o2)c(O)c([N+](=O)[O-])c1 | 93
ON=C(NN=C(Cl)C(F)(F)F)C(F)(F)F | 119
O=C1NC(=O)C(=Cc2ccc(-c3ccc(Br)cc3)o2)C(=O)N1 | 255
COc1ccc2[nH]cc(CCN)c2c1 | 122
Cc1ccc(N=Nc2ccc(N(C)C)cc2)cc1 | 165 to 167
CSc1c(C#N)c(N)nc2c(/N=N/c3ccc(C(=O)O)cc3)c(N)nn12 | 305 to 307
Cc1nc(-c2ccc(N)cc2)no1 | 113 to 114
CN(C)c1ccc(C=C2N=C(c3ccccc3)OC2=O)cc1 | 204 to 205
Cc1nc(-c2cnccn2)sc1C(=O)O | 237 to 238
FC(F)(F)c1cccc(Cl)n1 | 33 to 35
CC(=O)c1cc(-c2ccc(Cl)c(Cl)c2)no1 | 130 to 132
CC1=C(C(=O)OC(C)(C)C)C(c2ccc3c(c2)OCO3)NC(=O)N1 (stereo not drawn) | 210
c1ccc(-n2nc3ccccc3n2)cc1 | 107
Brc1cn[nH]c1 | 94.5
O=Cc1ccc(-c2ccc(F)c(C(F)(F)F)c2)o1 | 89 to 91

Structure (SMILES) | melting point [°C]
O=C(O)COC(=O)c1cc(Oc2ccc(C(F)F)cc2Cl)ccc1[N+](=O)[O-] | 65
O=Cc1ccc(OCc2ccc([N+](=O)[O-])cc2)cc1 | 130
O=CNCC(=O)O | 149
O=C=Nc1ccc(Cl)cc1 | 30
N#C/C(=C\c1ccc(F)cc1)c1nc2ccccc2c(=O)[nH]1 | 305 to 306
FC(F)(F)c1ccc2c(Cl)ccnc2c1 | 69 to 73
Cc1ccc(C)c2c1-c1nc3ccccc3nc1-2 | 195
COc1cc(OC)c2cc(C(=O)c3cccc4ccccc34)c(=O)oc2c1 | 210
CCc1ccc(C(=O)NN)cc1 | 84 to 87
Cc1nc2ccccc2n1CCc1nnc(SCc2ccccc2)n1-c1ccccc1 | 130
CO[C@](C(=O)O)(c1ccccc1)C(F)(F)F | 44
COc1cccc2cc(C(C)=O)oc12 | 93
CC(=O)OC1CCC2(C)C(CCC3C4CC=C(C#Cc5ccccc5)C4(C)CCC32)C1 (stereo not drawn) | 152 to 153
FC(F)(F)N1C(F)(F)C(F)(F)OC(F)(F)C1(F)F | -80
COc1cccc(C#N)c1 | 23
CN(N=O)c1ccc(N=O)cc1 | 101
OCc1cc(C(F)(F)F)cc(C(F)(F)F)c1 | 54
COc1ccc(OC)c(C=CC(=O)O)c1 | 147 to 150
Cc1cc(Br)cc(Br)c1O | 58
CC(C)(C)S(=O)(=O)CC(N)=S | 184 to 186
c1ccc(P(CCCCCCP(c2ccccc2)c2ccccc2)c2ccccc2)cc1 | 127
Cc1ccncc1C=NNc1ccc([N+](=O)[O-])cc1[N+](=O)[O-] | 156
CCOC=Nc1c(C#N)cnn1-c1ncnc2c1cnn2C | 155
